Test results as given in ChEMBL document CHEMBL3792279, “Design, synthesis, and evaluation of hinge-binder tethered 1,2,3-triazolylsalicylamide derivatives as Aurora kinase inhibitors” (Bioorg Med Chem, 2016).

Experiments:
[1] = target: T1, Aurora kinase A (Homo sapiens, UniProt O14965); assay: Inhibition of human Aurora A using H-LRRASLG as substrate after 2 hrs by HotSpot assay in presence of 33P-ATP and 10 uM ATP
T1 sequence (O14965 whole entry): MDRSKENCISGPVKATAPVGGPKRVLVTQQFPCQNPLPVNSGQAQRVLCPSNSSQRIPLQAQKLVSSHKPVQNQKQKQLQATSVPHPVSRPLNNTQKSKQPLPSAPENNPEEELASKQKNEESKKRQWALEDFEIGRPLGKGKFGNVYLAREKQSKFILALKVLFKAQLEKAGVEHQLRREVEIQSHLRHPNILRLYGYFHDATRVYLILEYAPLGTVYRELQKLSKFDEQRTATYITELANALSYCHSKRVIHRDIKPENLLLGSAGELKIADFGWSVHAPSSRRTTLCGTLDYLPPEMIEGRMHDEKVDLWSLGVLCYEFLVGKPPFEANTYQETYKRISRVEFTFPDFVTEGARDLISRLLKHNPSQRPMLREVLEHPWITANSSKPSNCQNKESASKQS

[2] = target: Aurora kinase B (Homo sapiens, UniProt Q96GD4); assay: Inhibition of human Aurora B using H-LRRASLG as substrate after 2 hrs by HotSpot assay in presence of 33P-ATP and 10 uM ATP
Sequence of Aurora kinase B (Q96GD4 whole entry): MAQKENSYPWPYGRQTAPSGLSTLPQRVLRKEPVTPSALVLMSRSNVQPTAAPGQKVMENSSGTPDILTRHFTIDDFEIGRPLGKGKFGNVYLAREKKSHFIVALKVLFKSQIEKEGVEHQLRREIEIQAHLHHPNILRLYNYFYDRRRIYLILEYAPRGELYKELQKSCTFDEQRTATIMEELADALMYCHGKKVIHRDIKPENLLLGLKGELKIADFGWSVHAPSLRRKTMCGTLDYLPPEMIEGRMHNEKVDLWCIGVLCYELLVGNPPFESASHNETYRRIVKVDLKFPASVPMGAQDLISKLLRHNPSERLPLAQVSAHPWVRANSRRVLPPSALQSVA

Row | SMILES | IC50 [1] [µM] | IC50 [2] [µM]
1 | COC(=O)c1cccc(NC(=O)c2cc(-n3cc(-c4cc(OC)cc(OC)c4)nn3)ccc2O)c1 | 0.768 | 5.94
2 | COC(=O)c1cccc(NC(=O)c2cc(-n3cc(CNc4ccccc4)nn3)ccc2O)c1 | 5.15 | 36.5
3 | COC(=O)c1cccc(NC(=O)c2cc(-n3cc(CNc4cc(C)[nH]n4)nn3)ccc2O)c1 | 13.7 | 49.5
4 | COC(=O)c1cccc(NC(=O)c2cc(-n3cc(CNc4nc5ccccc5o4)nn3)ccc2O)c1 | 3.52 | 10.2
5 | COC(=O)c1cccc(NC(=O)c2cc(-n3cc(CCNc4ncnc5ccsc45)nn3)ccc2O)c1 | 2.97 | 0.364
6 | COC(=O)c1cccc(NC(=O)c2cc(-n3cc(CNc4cc(C)ccn4)nn3)ccc2O)c1 | 6.07 | 16.3
7 | COC(=O)c1cccc(NC(=O)c2cc(-n3cc(CCNc4ncccn4)nn3)ccc2O)c1 | 7.67 | 15.2
8 | COC(=O)c1cccc(NC(=O)c2cc(-n3cc(CNc4ccccn4)nn3)ccc2O)c1 | 6.43 | 32.1
9 | COC(=O)c1cccc(NC(=O)c2cc(-n3cc(-c4ccc5c(c4)OCO5)nn3)ccc2O)c1 | 0.638 | 2.19
10 | COC(=O)c1cccc(NC(=O)c2cc(-n3cc(-c4ccc5nccnc5c4)nn3)ccc2O)c1 | 0.607 | 7.3
11 | COC(=O)c1cccc(NC(=O)c2cc(-n3cc(CNc4ncnc5ccsc45)nn3)ccc2O)c1 | 0.801 | 20.1
12 | COC(=O)c1cccc(NC(=O)c2cc(-n3cc(CNc4ncccn4)nn3)ccc2O)c1 | 15.4 | 40.7
13 | COC(=O)c1cccc(NC(=O)c2cc(-n3cc(CNc4cc(C)on4)nn3)ccc2O)c1 | 12.4 | 54.8
14 | COC(=O)c1cccc(NC(=O)c2cc(-n3cc(-c4cccc([N+](=O)[O-])c4)nn3)ccc2O)c1 | 0.284 | 1.33
